Reference: patent US20240294508A1, “RIP1 MODULATORS INCLUDING AZETIDINE CYCLIC UREAS, PREPARATIONS, AND USES THEREOF” (SIRONAX LTD., priority 2021, published 2024)

Tested on: HT-29 cells
Experiment: HT29 cells 0FBS assay in vitro: TNF-α/SMAC mimetic/zVAD-FMK induced necroptosis, CellTiter-Glo cell viability (RIP1 inhibitory activity)
Assay type: cell-based
Conditions: Homo sapiens, FBS free medium, TNF-α (10 ng/ml) + SMAC mimetic (6 uM) + zVAD-FMK (10 μM), 20 hours, geometric mean EC50
From the text: Protocol for HT29 Cells 0FBS Assay In Vitro
• Cell line: HT-29 (ATCC® HTB-38™) • Culture medium: McCOY's 5A, Gibco, Cat No. 16600-082 • FBS, Gibco, Cat No. 10099-141C • Trypsin: Gibco, Cat No. 25200-056 • DMSO: Sigma, Cat No. 67-68-5, 1L • Assay plate: Corning #3903 • Compound dilution plate: Corning #3357 • Inducers: TNFα, GenScript, Cat No. Z01001-50, • SmacM, Cat. No., HY-15989, MedChemExpress (MCE) • Z_VAD FMK, TargetMol, T6013 • Cell Titer-Glo® Luminescent Cell Viability Assay Kit: Promega, Cat No. G7573 • EnVision: PerkinElmer, 2105-0010
2. Cell Seeding of HT-29 Cells
1) HT-29 cells were checked every day to make sure they are healthy and growing as expected. They were split sub-culturing when were approximately 80% confluent.
2) First pre-warm the culture medium of McCOY's 5A medium (Gibco, Cat No. 16600-082) with 10% FBS (Gibco, Cat No. 10099-141C) in 37° C. water bath for at least 30 min.
3) Growing cells to desired level of confluency 80% in a T75 flask, aspirate the medium, and wash with warm PBS two times.
4) Add 2-3 ml fresh warm trypsin (Gibco, Cat No. 25200-056) solution. Transfer the flask to a 37° C. incubator.
5) After 5 minutes, tap the side of the flask, and examine the flask under a microscope for lifting. If necessary, return the cells to the incubator for an additional 5-10 minutes, with occasional tapping, until lifting is complete.
6) Quickly neutralize the trypsin reaction by adding 6-9 ml cell culture medium, then transfer the cells to sterile 15 ml conical tubes. Pellet the cells by centrifugation at 300×g for 7 minutes, then decant the supernatant.
7) Resuspend the cells in fresh cell culture medium. Do cell counting with hemocytometer.
8) Seed 100 μl of 5,000 cells into each well of the sterile 96-well cell culture plate (Corning 3903) and culture overnight at 37° C. with 5% CO2.
3. Compounds Titration and Treatment of HT-29 Cells
1) All batches of compounds (CPDs0 (e.g., compound 1-169) were dissolved in DMSO (Dimethyl sulfoxide) as 20 mM stock solution.
2) Take 3 ul 20 mM stock solution of CPDs to […] DMSO and mix well, continue the titration ratio of 1:3 (20 ul CPDs+40 ul DMSO), e.g., to give solutions of CPDS at 6.6 mM, 2.2 mM, etc., till the 10 points end.
3) Take out assay plates with HT-29 cells from incubator, remove all culture medium then wash 1 time with 1×PBS, and change fresh McCOY's 5A medium of FBS free with a cocktail of TNF-α (10 ng/ml), the SMAC mimetic (6 uM) and zVAD-FMK (10 μM) to stimulate the HT-29 cells to increase pRIPK1 levels and necroptosis.
4) Add 0.5 μL of the diluted compound to the corresponding 96-well assay plates.
5) Incubate the assay plates for 20 hours at 37° C. with 5% CO2.
4. Performing Cell Viability Detection of HT-29 Cells after Treated with Compounds
1) The CellTiter-Glo® Luminescent Cell Viability Assay was employed to detect the ATP levels of viable HT-29 cells.
2) Equilibrate the CellTiter-Glo® buffer and the lyophilized substrate to room temperature prior to use.
3) Resuspend the CellTiter-Glo® substrate with CellTiter-Glo® buffer, mix by gently vortexing to obtain a homogeneous solution.
4) Pipette 20 μl the enzyme/substrate mixture by multi-channel pipette into the 96-well assay plates from step 5) under the Compounds titration and treatment stage.
5) Place the plates on an orbital shaker and mix the contents for 3 minutes to induce cell lysis.
6) Then allow the plates to incubate at room temperature for 10 minutes to stabilize luminescent signal.
7) Read and record luminescence signal with EnVision.
8) The geometric mean EC50 of the compounds were calculated from 10 points response dose with duplicate. In Table 2, activity is provided as follows: +++=0.1 nM≤EC50<100 nM; ++=100 nM≤EC5 1000 nM; […].

Row | SMILES | EC50
1 | Cc1nn(-c2cc(OC3CN(C(=O)N4N=CC[C@@H]4c4cc(F)cc(F)c4F)C3)c(F)cn2)c(C)c1C(N)=O [Compound 103, (R)-1-(5-fluoro-4-((1-(5-(2,3,5-trifluorophenyl)-4,5-dihydro-1H-pyrazole-1-carbonyl)azetidin-3-yl)oxy)pyridin-2-yl)-3,5-dimethyl-1H-pyrazole-4-carboxamide] | 1000 to 10000 nM
2 | CCn1nccc1-c1cc(OC2CN(C(=O)N3N=CC[C@H]3c3cc(F)cc(C#N)c3)C2)c(F)cn1 [Compound 12, (S)-3-(1-(3-((2-(1-ethyl-1H-pyrazol-5-yl)-5-fluoropyridin-4-yl)oxy)azetidine-1-carbonyl)-4,5-dihydro-1H-pyrazol-5-yl)-5-fluorobenzonitrile] | 0.1 to 100 nM
3 | Cc1nn(-c2cc(OC3CN(C(=O)N4N=CC[C@@H]4c4cc(F)cc(Cl)c4)C3)c(F)cn2)c(C)c1C(N)=O [Compound 134, (R)-1-(4-((1-(5-(3-chloro-5-fluorophenyl)-4,5-dihydro-1H-pyrazole-1-carbonyl)azetidin-3-yl)oxy)-5-fluoropyridin-2-yl)-3,5-dimethyl-1H-pyrazole-4-carboxamide] | 100 to 1000 nM
4 | CCS(=O)(=O)c1c(C)nn(-c2cc(OC3CN(C(=O)N4N=CC[C@H]4c4cc(F)cc(C#N)c4)C3)c(F)cn2)c1C [Compound 48, (S)-3-(1-(3-((2-(4-(ethylsulfonyl)-3,5-dimethyl-1H-pyrazol-1-yl)-5-fluoropyridin-4-yl)oxy)azetidine-1-carbonyl)-4,5-dihydro-1H-pyrazol-5-yl)-5-fluorobenzonitrile] | 0.1 to 100 nM
5 | Cc1cc(F)cc([C@H]2CC=NN2C(=O)N2CC(Oc3cc(-n4nc(C)c(C(N)=O)c4C)ncc3F)C2)c1 [Compound 136, (R)-1-(5-fluoro-4-((1-(5-(3-fluoro-5-methylphenyl)-4,5-dihydro-1H-pyrazole-1-carbonyl)azetidin-3-yl)oxy)pyridin-2-yl)-3,5-dimethyl-1H-pyrazole-4-carboxamide] | 100 to 1000 nM
6 | Cc1c(N)nn(C)c1-c1cc(OC2CN(C(=O)N3N=CCC3c3cc(F)cc(F)c3F)C2)c(F)cn1 (stereo not shown) [Compound 115, (3-((2-(3-amino-1,4-dimethyl-1H-pyrazol-5-yl)-5-fluoropyridin-4-yl)oxy)azetidin-1-yl)(5-(2,3,5-trifluorophenyl)-4,5-dihydro-1H-pyrazol-1-yl) methanone] | 0.1 to 100 nM
7 | Cc1nc(C(N)=O)c(C)n1-c1cc(OC2CN(C(=O)N3N=CC[C@H]3c3cncc(F)c3)C2)c(F)cn1 [Compound 69, (S)-1-(5-fluoro-4-((1-(5-(5-fluoropyridin-3-yl)-4,5-dihydro-1H-pyrazole-1-carbonyl)azetidin-3-yl)oxy)pyridin-2-yl)-2,5-dimethyl-1H-imidazole-4-carboxamide] | 100 to 1000 nM
8 | Cn1ncc(C#N)c1-c1csc(OC2CN(C(=O)N3N=CC[C@H]3c3cc(F)cc(F)c3)C2)n1 [Compound 150, (S)-5-(2-((1-(5-(3,5-difluorophenyl)-4,5-dihydro-1H-pyrazole-1-carbonyl)azetidin-3-yl)oxy)thiazol-4-yl)-1-methyl-1H-pyrazole-4-carbonitrile] | 0.1 to 100 nM
9 | Cn1ncc(-c2cc(OC3CN(C(=O)N4N=CC[C@H]4c4cc(F)cc(C#N)c4)C3)c(F)cn2)n1 [Compound 15, (S)-3-fluoro-5-(1-(3-((5-fluoro-2-(2-methyl-2H-1,2,3-triazol-4-yl)pyridin-4-yl)oxy)azetidine-1-carbonyl)-4,5-dihydro-1H-pyrazol-5-yl)benzonitrile] | 100 to 1000 nM
10 | Cc1cnn(C)c1-c1nc(OC2CN(C(=O)N3N=CC[C@H]3c3cc(F)cc(F)c3)C2)sc1CO [Compound 157, (S)-(5-(3,5-difluorophenyl)-4,5-dihydro-11H-pyrazol-1-yl)(3-((4-(1,4-dimethyl-1H-pyrazol-5-yl)-5-(hydroxymethyl)thiazol-2-yl)oxy)azetidin-1-yl)methanone] | 1000 to 10000 nM
11 | Cc1nn(-c2cc(OC3CN(C(=O)N4N=CC[C@H]4c4cccc(F)c4)C3)c(F)cn2)c(C)c1C(=O)NCCO [Compound 75, (S)-1-(5-fluoro-4-((1-(5-(3-fluorophenyl)-4,5-dihydro-1H-pyrazole-1-carbonyl)azetidin-3-yl)oxy)pyridin-2-yl)-N-(2-hydroxyethyl)-3,5-dimethyl-1H-pyrazole-4-carboxamide] | 0.1 to 100 nM
12 | Cc1c(N)nn(C)c1-c1cc(OC2CN(C(=O)N3N=CC[C@H]3c3cc(F)cc(C#N)c3)C2)c(F)cn1 [Compound 49, (S)-3-(1-(3-((2-(3-amino-1,4-dimethyl-1H-pyrazol-5-yl)-5-fluoropyridin-4-yl)oxy)azetidine-1-carbonyl)-4,5-dihydro-1H-pyrazol-5-yl)-5-fluoro benzonitrile] | 0.1 to 100 nM
13 | Cc1cc(F)cc([C@@H]2CC=NN2C(=O)N2CC(Oc3cc(-n4nc(C)c(C(N)=O)c4C)ncc3F)C2)c1 [Compound 135, (S)-1-(5-fluoro-4-((1-(5-(3-fluoro-5-methylphenyl)-4,5-dihydro-1H-pyrazole-1-carbonyl)azetidin-3-yl)oxy)pyridin-2-yl)-3,5-dimethyl-1H-pyrazole-4-carboxamide] | 0.1 to 100 nM
14 | Cc1nn(-c2cc(OC3CN(C(=O)N4N=CCC4c4cc(F)cc(F)c4F)C3)c(F)cn2)c(C)c1S(N)(=O)=O (stereo not shown) [Compound 112, 1-(5-fluoro-4-((1-(5-(2,3,5-trifluorophenyl)-4,5-dihydro-1H-pyrazole-1-carbonyl)azetidin-3-yl)oxy)pyridin-2-yl)-3,5-dimethyl-1H-pyrazole-4-sulfonamide] | 0.1 to 100 nM
15 | Cn1ccnc1-c1cc(OC2CN(C(=O)N3N=CC[C@H]3c3cc(F)cc(C#N)c3)C2)c(F)cn1 [Compound 36, (S)-3-fluoro-5-(1-(3-((5-fluoro-2-(1-methyl-1H-imidazol-2-yl)pyridin-4-yl)oxy)azetidine-1-carbonyl)-4,5-dihydro-1H-pyrazol-5-yl)benzonitrile] | 0.1 to 100 nM
16 | Cc1cnn(C)c1-c1cc(OC2CN(C(=O)C3=NNCC3c3cc(F)cc(F)c3)C2)c(F)cn1 (stereo not shown) [Compound 161, (4-(3,5-difluorophenyl)-4,5-dihydro-1H-pyrazol-3-yl)(3-((2-(1,4-dimethyl-1H-pyrazol-5-yl)-5-fluoropyridin-4-yl)oxy)azetidin-1-yl)methanone] | 0.1 to 100 nM
17 | Cc1noc(C)c1-c1ncc(F)c(OC2CN(C(=O)N3N=CC[C@H]3c3cncc(F)c3)C2)n1 [Compound 4, (S)-(3-((2-(3,5-dimethylisoxazol-4-yl)-5-fluoropyrimidin-4-yl)oxy)azetidin-1-yl)(5-(5-fluoropyridin-3-yl)-4,5-dihydro-1H-pyrazol-1-yl)methanone] | 0.1 to 100 nM
18 | Cc1nn(-c2cc(OC3CN(C(=O)N4N=CC[C@@H]4c4cc(F)cc(F)c4F)C3)c(F)cn2)c(C)c1S(N)(=O)=O [Compound 125, (R)-1-(5-fluoro-4-((1-(5-(2,3,5-trifluorophenyl)-4,5-dihydro-1H-pyrazole-1-carbonyl)azetidin-3-yl)oxy)pyridin-2-yl)-3,5-dimethyl-1H-pyrazole-4-sulfonamide] | 100 to 1000 nM
19 | Cc1cnc(C2CC=NN2C(=O)N2CC(Oc3nc(-c4ccnn4C)c(F)cc3F)C2)s1 (stereo not shown) [Compound 139, (3-((3,5-difluoro-6-(1-methyl-1H-pyrazol-5-yl)pyridin-2-yl)oxy)azetidin-1-yl)(5-(5-methylthiazol-2-yl)-4,5-dihydro-1H-pyrazol-1-yl)methanone] | 0.1 to 100 nM
